The values below come from PubChem BioAssay (NCI).

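Cultured in 96-well plates, cells were exposed to test compound for 48 hours across five concentrations. At the TGI there is no net growth.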

In the assay the test system is P388/ADR leukemia. Description: NCI tumour cell line growth inhibition, 48 h.

`COc1cc(C2c3cc4c(cc3[C@@H](Nc3ccc([N+](=O)[O-])cc3)C3COC(=O)[C@H]23)OCO4)cc(OC)c1O` (some centres not stated) returned a TGI of 10.7 µM. In turn, `CCCS(=O)c1nc(COC(=O)NC)c(COC(=O)NC)n1C` (configuration not stated) gave a TGI of over 100 µM.
